{
  "source": "patent US20140142180A1",
  "about": "“METHODS OF TREATING TUMORS HAVING ELEVATED MCT1 EXPRESSION” (Whitehead Institute for Biomedical Research, priority 2012, published 2014)",
  "target": "T1, MCT1 (Homo sapiens, UniProt P53985)",
  "T1 construct": "endogenous in cells; host or cells: wild type KBM7 cells (near-haploid human cell line)",
  "T1 sequence (P53985 1-500)": "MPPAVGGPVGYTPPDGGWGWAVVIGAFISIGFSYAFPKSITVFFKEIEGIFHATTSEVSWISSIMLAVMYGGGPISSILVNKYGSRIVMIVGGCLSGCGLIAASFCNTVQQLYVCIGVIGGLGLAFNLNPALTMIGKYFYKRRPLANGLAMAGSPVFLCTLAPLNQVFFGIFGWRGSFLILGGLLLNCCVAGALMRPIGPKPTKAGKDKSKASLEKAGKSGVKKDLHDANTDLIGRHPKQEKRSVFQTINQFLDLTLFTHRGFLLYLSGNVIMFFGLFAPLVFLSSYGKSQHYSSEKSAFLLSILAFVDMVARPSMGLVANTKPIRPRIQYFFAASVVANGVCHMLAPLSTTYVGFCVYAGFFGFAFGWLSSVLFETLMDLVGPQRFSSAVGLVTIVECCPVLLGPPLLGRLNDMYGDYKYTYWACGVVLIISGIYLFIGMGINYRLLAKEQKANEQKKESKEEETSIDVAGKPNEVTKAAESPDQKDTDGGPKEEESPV",
  "T1 sequence (P35613 140-385 partner limits assumed)": "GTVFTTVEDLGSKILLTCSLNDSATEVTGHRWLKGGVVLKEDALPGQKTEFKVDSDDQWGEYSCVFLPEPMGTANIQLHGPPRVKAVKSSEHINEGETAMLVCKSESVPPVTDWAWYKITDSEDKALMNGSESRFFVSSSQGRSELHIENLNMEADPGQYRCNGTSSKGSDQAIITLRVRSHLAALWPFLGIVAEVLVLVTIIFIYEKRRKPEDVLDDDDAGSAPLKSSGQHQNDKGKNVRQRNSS",
  "experiment": "14C-3-BrPA uptake assay, wild type KBM7 cells",
  "type": "cell-based",
  "description": "Wild type KBM7 or MCT1-null cells were seeded in HBSS and exposed for up to 20 minutes to 100 μM ^14C-labeled 3-BrPA (6.8 mCi/mmole) (Moravek) with or without competitor molecules like 3-BrPA, Pyruvate, L-Lactate and D-Lactate. Cells were washed with cold HBSS, lysed in a NaOH buffer, and uptake measured using a liquid scintillation counter.",
  "data": [
    {"compound": "O=C(O)C(=O)CBr", "note": "[3-BrPA, 3-bromopyruvic acid]", "values": [
      {"measurement": "3-BrPA uptake on reduction in extracellular pH", "setting": "wild type KBM7, radiolabeled 3-BrPA, 20 minutes", "result": "enhanced"},
      {"measurement": "competition with the uptake of radiolabeled 3-BrPA", "setting": "wild type KBM7 in HBSS, up to 20 minutes, unlabeled competitor", "result": "effectively competed"}
    ]}
  ]
}
